In US9044429B2, “Personal care compositions comprising a methyl naphthalenyl ketone or a derivative thereof” (The Gillette Company, priority 2010, dated 2015):

Experiments:
Assay type in all cases: cell-based
human TRPV1 [1] = target: T1, human TRPV1 (Homo sapiens, UniProt Q8NER1); experiment: Pre-Incubation Test (FLIPR intracellular calcium, HEK-293 cells, capsaicin activator); conditions: test compound final 100 μM
T1 construct: expressed in transfected cells; host or cells: HEK-293
Protocol: (§1) The Pre-Incubation Test and Direct Addition Test Methods, as defined herein, can be conducted on either TRPV1 or TRPA1 receptors.
(§2) Pre-Incubation Test Method: First, the intracellular calcium ion (Ca^+2) levels in TRPV1 and TRPA1 receptors is measured. HEK-293 (human embryonic kidney) cells stably transfected with human TRPV1 or TRPA1 are grown in 15 ml growth medium [high glucose DMEM (Dulbecco's Modification of Eagle's Medium) supplemented with 10% FBS (fetal bovine serum), 100 μg/ml Penicillin/streptomycin, 100 μg/ml G418] in a 75 Cm^2 flask for 3 days at 33° C. in a mammalian cell culture incubator set at 5% CO2. Cells are detached with addition of 10 ml of PBS (phosphate buffered saline) by hand shaking gently. […] Fluo-4 is a fluorescent dye used for quantifying cellular Ca^2+ concentrations in the 100 nM to 1 microM range. […]
(§3) The pellet cells are re-suspended in 10 ml assay buffer and 90 μl aliquots (50,000 cells) per well delivered to a 96-well assay plate containing 10 μl of test compounds (1 mM in assay buffer, final concentration 100 μM) or buffer control and incubated at room temperature for 30 minutes. After 30 minutes, the plate is placed into a fluorometric imaging plate reader (FLIPR^384 from Molecular Devices) and basal fluorescence recorded (excitation wave length 488 nm and emission wave length 510 nm). […]

human TRPA1 [2] = target: T2, human TRPA1 (Homo sapiens, UniProt O75762); experiment: Pre-Incubation Test (FLIPR intracellular calcium, HEK-293 cells, AITC activator); conditions: test compound final 100 μM
T2 construct: expressed in transfected cells; host or cells: HEK-293
Protocol: as §1, §2, §3

human TRPA1 [3] = target: T2, human TRPA1; experiment: Direct Addition Test (FLIPR intracellular calcium, HEK-293 cells); conditions: compound final 100 μM
Protocol: as §1
(§4) Pre-Incubation Test Method: First, the intracellular calcium ion (Ca^+2) levels in TRPV1 and TRPA1 receptors is measured. HEK-293 (human embryonic kidney) cells stably transfected with human TRPV1 or TRPA1 are grown in 15 ml growth medium [high glucose DMEM (Dulbecco's Modification of Eagle's Medium) supplemented with 10% FBS (fetal bovine serum), 100 μg/ml Penicillin/streptomycin, 100 μg/ml G418] in a 75 Cm^2 flask for 3 days at 33° C. in a mammalian cell culture incubator set at 5% CO2. Cells are detached with addition of 10 ml of PBS (phosphate buffered saline) by hand shaking gently. Cells are transferred to a 50 ml tube and centrifuged at 850 rpm for 3 minutes to remove PBS. After centrifugation, a pellet of cells is formed in the bottom of the tube separating them from the supernatant solution. The supernatant is discarded and the cell pellet is suspended in 1 ml of fresh growth medium to which 5 μl (12.5 μg) of Fluo-4 AM (Molecular Probes, Inc.) calcium indicator is added and incubated for 30 min with gentle shaking on a plate shaker. Fluo-4 is a fluorescent dye used for quantifying cellular Ca^2+ concentrations in the 100 nM to 1 microM range. At the end of the 30 minutes, 45 ml of assay buffer [1×HBSS (Hank's Balanced Salt Solution), 20 mM HEPES (4-(2-Hydroxyethyl)-1-piperazineethanesulfonic acid)] is added to wash cells and the resulting combination is then centrifuged at 850 rpm for 3 minutes to remove excess buffer and Fluo-4 AM calcium indicator.
(§5) The pellet cells are re-suspended in 10 ml assay buffer and 90 μl aliquots (50,000 cells) per well delivered to a 96-well assay plate containing 10 μl of test compounds (1 mM in assay buffer, final concentration 100 μM) or buffer control and incubated at room temperature for 30 minutes. After 30 minutes, the plate is placed into a fluorometric imaging plate reader (FLIPR^384 from Molecular Devices) and basal fluorescence recorded (excitation wave length 488 nm and emission wave length 510 nm). […] Then 20 μl of the activators [1.8 μM Capsaicin (final concentration 300 nM) for TRPV1 or 300 μM AITC (final concentration 50 μM) for TRPA1 is added by FLIPR automatically and fluorescence recorded immediately.
(§6) Direct Addition Test Method (for determining the direct effect of test compounds on TRPV1 and TRPA1): All procedures are same as the pre-incubation test except 10 μl assay buffer instead of 10 μl test compounds in the 96-well assay plates. The fluorescence is measured immediately after addition of 20 μl of 600 μM each compound (final concentration 100 μM). […] The percentage of up-regulation or down-regulation is calculated based on the fluorescence measurement.

human TRPV1 [4] = target: T1, human TRPV1; experiment: as above; conditions: compound final 100 μM
Protocol: as §1, §4, §5, §6

[5] = calculated from fluorescence relative to activator

T1 sequence (Q8NER1 whole entry): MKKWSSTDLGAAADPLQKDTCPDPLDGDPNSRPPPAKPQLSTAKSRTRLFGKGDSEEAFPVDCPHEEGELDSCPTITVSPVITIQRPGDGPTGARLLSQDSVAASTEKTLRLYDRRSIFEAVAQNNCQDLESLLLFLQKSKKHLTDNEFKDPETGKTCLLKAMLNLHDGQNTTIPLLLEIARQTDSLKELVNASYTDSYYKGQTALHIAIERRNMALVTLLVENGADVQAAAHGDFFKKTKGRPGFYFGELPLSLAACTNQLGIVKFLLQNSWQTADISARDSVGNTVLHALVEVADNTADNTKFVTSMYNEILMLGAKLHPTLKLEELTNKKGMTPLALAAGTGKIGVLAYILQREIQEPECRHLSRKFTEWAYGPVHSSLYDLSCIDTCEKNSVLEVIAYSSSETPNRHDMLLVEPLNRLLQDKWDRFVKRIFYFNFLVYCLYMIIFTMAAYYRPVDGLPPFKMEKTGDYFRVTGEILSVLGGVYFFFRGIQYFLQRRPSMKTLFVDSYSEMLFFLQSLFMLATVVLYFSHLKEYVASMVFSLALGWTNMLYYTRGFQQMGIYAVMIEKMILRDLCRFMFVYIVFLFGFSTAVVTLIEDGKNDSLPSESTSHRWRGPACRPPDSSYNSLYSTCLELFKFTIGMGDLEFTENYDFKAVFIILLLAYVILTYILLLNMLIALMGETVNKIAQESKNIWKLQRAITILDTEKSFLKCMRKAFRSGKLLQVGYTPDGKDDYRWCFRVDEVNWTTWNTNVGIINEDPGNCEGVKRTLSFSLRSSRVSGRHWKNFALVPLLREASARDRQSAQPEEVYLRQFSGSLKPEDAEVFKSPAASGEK
T2 sequence (O75762 whole entry): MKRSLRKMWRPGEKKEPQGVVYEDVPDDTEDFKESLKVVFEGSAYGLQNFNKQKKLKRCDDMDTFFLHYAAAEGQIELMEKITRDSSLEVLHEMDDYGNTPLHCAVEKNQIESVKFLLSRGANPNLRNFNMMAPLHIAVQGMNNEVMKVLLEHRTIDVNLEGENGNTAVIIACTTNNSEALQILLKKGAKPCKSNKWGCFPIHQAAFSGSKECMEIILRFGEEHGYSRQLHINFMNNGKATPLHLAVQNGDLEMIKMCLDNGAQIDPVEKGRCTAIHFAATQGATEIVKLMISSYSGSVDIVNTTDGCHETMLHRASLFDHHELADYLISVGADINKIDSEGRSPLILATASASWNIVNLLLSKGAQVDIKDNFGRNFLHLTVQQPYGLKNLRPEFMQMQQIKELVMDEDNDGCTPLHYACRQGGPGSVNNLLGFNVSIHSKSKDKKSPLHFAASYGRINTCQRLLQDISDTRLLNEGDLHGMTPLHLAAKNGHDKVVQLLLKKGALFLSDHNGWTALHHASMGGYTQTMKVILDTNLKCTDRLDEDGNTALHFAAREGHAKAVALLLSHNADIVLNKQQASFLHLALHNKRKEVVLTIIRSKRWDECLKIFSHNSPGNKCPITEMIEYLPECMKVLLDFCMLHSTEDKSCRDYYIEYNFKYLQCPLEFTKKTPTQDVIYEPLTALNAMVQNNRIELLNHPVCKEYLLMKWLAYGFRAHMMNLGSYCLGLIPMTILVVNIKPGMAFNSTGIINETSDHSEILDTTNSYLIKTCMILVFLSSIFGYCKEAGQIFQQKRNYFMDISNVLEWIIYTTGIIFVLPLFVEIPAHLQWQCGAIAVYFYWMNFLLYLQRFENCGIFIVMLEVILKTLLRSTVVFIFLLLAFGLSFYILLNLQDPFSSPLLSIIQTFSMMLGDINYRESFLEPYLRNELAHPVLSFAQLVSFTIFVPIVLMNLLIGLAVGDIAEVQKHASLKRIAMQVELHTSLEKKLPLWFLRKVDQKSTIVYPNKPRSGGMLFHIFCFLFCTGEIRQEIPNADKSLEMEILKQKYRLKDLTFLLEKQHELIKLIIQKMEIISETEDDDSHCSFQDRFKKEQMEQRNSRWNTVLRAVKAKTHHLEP

Structure (SMILES): CC(=O)C1(C)CC2=C(CCCC2(C)C)CC1C (centres unmarked) [Iso E Super, 1-(1,2,3,4,5,6,7,8-octahydro-2,3,8,8-tetramethyl-2naphthalenyl)-ethan-1-one]
- Fluorescence value after adding Iso E Super (human TRPV1 [1]; 30 min at room temperature, then capsaicin final 300 nM): 2334.51 fluorescence units
- % Regulation (human TRPV1 [1]; [5]): 21.82%
- Fluorescence value after adding Iso E Super (human TRPA1 [2]; 30 min at room temperature, then AITC final 50 μM): −57.37 fluorescence units
- % Regulation (human TRPA1 [2]; [5]): −0.40%
- % Regulation (human TRPA1 [3]; [5]): 11.53%
- Fluorescence value after adding Iso E Super (human TRPA1 [3]; measured immediately): 1386.593 fluorescence units
- % Regulation (human TRPV1 [4]; [5]): −0.71%
- Fluorescence value after adding Iso E Super (human TRPV1 [4]; measured immediately): −82.62 fluorescence units
